Consider 16 compounds from patent US8865623B2, “Herbicidally active cyclic diones and derivatives thereof, processes for their preparation, compositions, and method of controlling weeds” (Syngenta Limited, priority 2009, dated 2014).

What all share (type): in vivo
Assay [1] relates to Alopecurus myosuroides (ALOMY). Put plainly: Pre-emergence herbicidal activity, glasshouse pot test. The note with it: Alopecurus myosuroides, 312 h; Rate 250 g/ha; pre-emergence spray; evaluated after 13 days; read-out: Pre-emergence activity ALOMY (100=total damage to plant; 0=no damage to plant). The essentials: (§1)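 Seeds sown in standard soil in pots were sprayed 1 day after sowing (pre-emergence) or after 8 days' cultivation (post-emergence) with aqueous spray from acetone/water (50:50) formulation containing 0.5% Tween 20. Plants grew at 24/16° C day/night, 14 h light, 65% humidity, watered twice daily. Damage scored after 13 days, 0–100.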

In assay [2] the test system is Avena fatua (AVEFA). The assay is described as above. The note with it: Avena fatua, 312 h; Rate 250 g/ha; pre-emergence spray; evaluated after 13 days; read-out: Pre-emergence activity AVEFA (100=total damage to plant; 0=no damage to plant). An outline of the steps: as §1
The subject of assay [3] is Echinochloa crus-galli (ECHCG). The assay is described as above. The note with it: Echinochloa crus-galli, 312 h; Rate 250 g/ha; pre-emergence spray; evaluated after 13 days; read-out: Pre-emergence activity ECHCG (100=total damage to plant; 0=no damage to plant). The essentials:
as §1

In assay [4] the test system is Lolium perenne (LOLPE). Described as above. The note with it: Lolium perenne, 312 h; Rate 250 g/ha; pre-emergence spray; evaluated after 13 days; read-out: Pre-emergence activity LOLPE (100=total damage to plant; 0=no damage to plant). An outline of the steps:
as §1

For assay [5], the system named is Alopecurus myosuroides (ALOMY). Put plainly: Post-emergence herbicidal activity, glasshouse pot test. The note with it: Alopecurus myosuroides, 312 h, rate 250 g/ha, evaluated after 13 days, glasshouse, read-out: Post-emergence activity ALOMY (100=total damage to plant; 0=no damage to plant). An outline of the steps:
as §1

Assay [6] has as its system Avena fatua (AVEFA). Described as above. The note with it: Avena fatua, 312 h, rate 250 g/ha, evaluated after 13 days, glasshouse, read-out: Post-emergence activity AVEFA (100=total damage to plant; 0=no damage to plant). The essentials: as §1
Assay [7] concerns Echinochloa crus-galli (ECHCG). The assay is described as above. The note with it: Echinochloa crus-galli, 312 h, rate 250 g/ha, evaluated after 13 days, glasshouse, read-out: Post-emergence activity ECHCG (100=total damage to plant; 0=no damage to plant). An outline of the steps:
as §1

The test system of assay [8] is Lolium perenne (LOLPE). The assay is described as above. The note with it: Lolium perenne, 312 h, rate 250 g/ha, evaluated after 13 days, glasshouse, read-out: Post-emergence activity LOLPE (100=total damage to plant; 0=no damage to plant). The essentials:
as §1

The structures appear in SMILES notation.

`CCc1ccc(Oc2nc3ccccc3s2)cc1C1=C(O)[C@@H]2CC[C@](C)(C1=O)C2(C)C` [Example A-319]: the pest or weed control at 250 g/ha in assay [1] was 90%; in assay [2], 70%; in assay [3] it was 100%; in assay [4], 100%; in assay [5], 100%; in assay [6] it was 100%. The pest or weed control at 250 g/ha in assay [7] and in assay [8] was 100% in each case.

As for `CCc1ccc(Oc2nc3ccc(Cl)cc3s2)cc1C1=C(O)[C@@H]2CC[C@](C)(C1=O)C2(C)C` [Example A-320], the pest or weed control at 250 g/ha in assay [1] came out at 80%; in assay [2] it was 80%; in assay [3] it was 100%; in assay [4], 100%; in assay [5], 100%; in assay [6] it was 100%. The results for the pest or weed control at 250 g/ha in assay [7] and in assay [8] were 100% and 90%, respectively.

For the compound `CCc1ccc(Oc2ccc3ccccc3n2)cc1C1=C(O)[C@@H]2CC[C@](C)(C1=O)C2(C)C` [Example A-321], the pest or weed control at 250 g/ha in assay [1] came out at 70%; in assay [2], 50%; in assay [3], 100%; in assay [4], 90%; in assay [5], 90%; in assay [6] it was 90%. Also, the pest or weed control at 250 g/ha was 100% in assay [7] and 90% in assay [8].

With `CCc1ccc(Oc2nc3cc(Cl)ccc3s2)cc1C1=C(O)[C@@H]2CC[C@](C)(C1=O)C2(C)C` [Example A-322], the pest or weed control at 250 g/ha was determined as 60% in assay [1]; 40% in assay [2]; 100% in assay [3]; 100% in assay [4]; 90% in assay [5]; 80% in assay [6]. In addition, the pest or weed control at 250 g/ha in assay [7] was 100%; in assay [8], 90%.

On to `CCc1ccc(Oc2ccc(C(F)(F)F)c(C#N)c2)cc1C1=C(O)[C@@H]2CC[C@](C)(C1=O)C2(C)C` [Example A-323], for which the pest or weed control at 250 g/ha is 70% in assay [1]; 80% in assay [2]; 100% in assay [3]; 100% in assay [4]; 60% in assay [5]; 80% in assay [6]. Also, the pest or weed control at 250 g/ha came to 90% in assay [7] and 70% in assay [8].

`CCc1ccc(Oc2ncc(C(F)(F)F)cc2C(F)(F)F)cc1C1=C(O)[C@@H]2CC[C@](C)(C1=O)C2(C)C` [Example A-324]: the pest or weed control at 250 g/ha in assay [1] is 90%; in assay [2] it was 90%; in assay [3], 100%; in assay [4], 100%; in assay [5] it was 100%; in assay [6], 100%. The pest or weed control at 250 g/ha in assay [7] and in assay [8] was 100% in each case.

In the case of `CCc1ccc(Oc2nc3ccc([N+](=O)[O-])cc3s2)cc1C1=C(O)[C@@H]2CC[C@](C)(C1=O)C2(C)C` [Example A-325], the pest or weed control at 250 g/ha worked out at 60% in assay [1]; 20% in assay [2]; 100% in assay [3]; 90% in assay [4]; 50% in assay [5]; 30% in assay [6]. The pest or weed control at 250 g/ha was 100% in assay [7] and 40% in assay [8].

As for `CCc1ccc(Oc2nc3ccc(OC)cc3s2)cc1C1=C(O)[C@@H]2CC[C@](C)(C1=O)C2(C)C` [Example A-326], the pest or weed control at 250 g/ha in assay [1] worked out at 30%; in assay [2] it was 10%; in assay [3], 70%; in assay [4], 90%; in assay [5], 30%; in assay [6] it was 90%. The pest or weed control at 250 g/ha in assay [7] came to 100%; in assay [8] it was 90%.

As to `CCc1ccc(Oc2ccc(C(F)(F)F)cc2[N+](=O)[O-])cc1C1=C(O)[C@@H]2CC[C@](C)(C1=O)C2(C)C` [Example A-327], the pest or weed control at 250 g/ha in assay [1] came out at 70%; in assay [2], 20%; in assay [3] it was 100%; in assay [4], 90%; in assay [5] it was 80%; in assay [6] it was 90%. Besides, the values for the pest or weed control at 250 g/ha in assay [7] and in assay [8] were 100% and 70%, respectively.

Regarding `CCc1ccc(Oc2nc3c(Cl)cc(Cl)cc3s2)cc1C1=C(O)[C@@H]2CC[C@](C)(C1=O)C2(C)C` [Example A-328], the pest or weed control at 250 g/ha in assay [1] was 50%; in assay [2], 30%; in assay [3] it was 100%; in assay [4] it was 90%; in assay [5], 60%; in assay [6], 80%. Also, the figures for the pest or weed control at 250 g/ha in assay [7] and in assay [8] were 100% and 70%, respectively.

For `CCc1ccc(Oc2ncc(Cl)cc2C(F)(F)F)cc1C1=C(O)[C@@H]2CC[C@](C)(C1=O)C2(C)C` [Example A-329], the pest or weed control at 250 g/ha in assay [1] turned out to be 90%; in assay [2], 90%; in assay [3], 100%; in assay [4] it was 100%; in assay [5] it was 80%; in assay [6] it was 90%. The values for the pest or weed control at 250 g/ha in assay [7] and in assay [8] were 100% and 70%, respectively.

As to `CCc1ccc(Oc2ccc(C#N)c(Cl)c2)cc1C1=C(O)[C@H]2CC[C@H](C2)C1=O` [Example A-330], the pest or weed control at 250 g/ha in assay [1] amounted to 80%; in assay [2] it was 80%; in assay [3] it was 100%; in assay [4], 100%; in assay [5], 70%; in assay [6], 80%. For the same compound, the pest or weed control at 250 g/ha in assay [7] was found to be 100%; in assay [8] it was 70%.

Consider `CCc1ccc(Oc2ccc(C(F)(F)F)cc2Cl)cc1C1=C(O)[C@H]2CC[C@H](C2)C1=O` [Example A-331], for which the pest or weed control at 250 g/ha in assay [1] was determined as 90%; in assay [2], 80%; in assay [3] it was 100%; in assay [4] it was 100%; in assay [5], 80%; in assay [6], 80%. The pest or weed control at 250 g/ha in assay [7] came out at 100%; in assay [8], 80%.

As to `CCc1ccc(Oc2ccc(C(F)(F)F)c(Cl)c2)cc1C1=C(O)[C@H]2CC[C@H](C2)C1=O` [Example A-332], the pest or weed control at 250 g/ha in assay [1] is 80%; in assay [2], 70%; in assay [3], 100%; in assay [4], 100%; in assay [5], 100%; in assay [6], 100%. Further, the pest or weed control at 250 g/ha in assay [7] and in assay [8] was 100% throughout.

On to `CCc1ccc(Oc2ccc([N+](=O)[O-])c(Cl)c2)cc1C1=C(O)[C@H]2CC[C@H](C2)C1=O` [Example A-333], for which the pest or weed control at 250 g/ha in assay [1] was 50%; in assay [2], 40%; in assay [3] it was 100%; in assay [4] it was 90%; in assay [5], 60%; in assay [6], 70%. For the same compound, the figures for the pest or weed control at 250 g/ha in assay [7] and in assay [8] were 100% and 60%, respectively.

For `CCc1ccc(Oc2ccc(C(F)(F)F)cn2)cc1C1=C(O)[C@H]2CC[C@H](C2)C1=O` [Example A-334], the pest or weed control at 250 g/ha is 100% in assay [1]; 100% in assay [2]; 100% in assay [3]; 100% in assay [4]; 90% in assay [5]; 100% in assay [6]. Besides, the pest or weed control at 250 g/ha in assay [7] and in assay [8] was 100% in each case.
